# Patent US7041687B2, “Indazole compounds useful as protein kinase inhibitors” (Vertex Pharmaceuticals Incorporated, priority 2002, dated 2006)
# Where “and” joins values, the source holds several entries; their conditions need not be identical. Identical values can stand only once.
# Key:
# Assay type in all cases: biochemical
# AKT-3 = AKT-3 (Homo sapiens, UniProt Q9Y243); test: AKT-3 inhibition assay (standard coupled enzyme assay); conditions: 170 μM ATP, 200 μM peptide, 45 nM AKT, 30° C.
# PDK-1 = molecular target: T1, PDK-1 (Homo sapiens, UniProt O15530); test: PDK-1 inhibition assay (radioactive-phosphate incorporation); conditions: 40 μM ATP, 65 μM PDKtide, 25 nM PDK-1, 30° C.
# T1 sequence (O15530 1-556): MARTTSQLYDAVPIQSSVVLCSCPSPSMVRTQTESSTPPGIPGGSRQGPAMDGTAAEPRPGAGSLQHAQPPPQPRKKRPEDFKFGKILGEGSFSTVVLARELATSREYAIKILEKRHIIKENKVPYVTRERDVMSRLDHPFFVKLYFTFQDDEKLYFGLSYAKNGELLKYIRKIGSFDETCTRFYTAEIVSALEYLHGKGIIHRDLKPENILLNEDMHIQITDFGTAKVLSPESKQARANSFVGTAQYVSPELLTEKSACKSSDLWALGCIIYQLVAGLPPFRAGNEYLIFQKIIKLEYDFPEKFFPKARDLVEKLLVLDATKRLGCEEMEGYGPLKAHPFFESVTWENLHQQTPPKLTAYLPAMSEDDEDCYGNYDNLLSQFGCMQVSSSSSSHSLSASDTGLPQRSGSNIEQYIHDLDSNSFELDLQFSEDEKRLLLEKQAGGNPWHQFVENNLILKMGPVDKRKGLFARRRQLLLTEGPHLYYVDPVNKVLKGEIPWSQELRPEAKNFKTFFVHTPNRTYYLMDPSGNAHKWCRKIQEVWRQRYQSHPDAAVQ
# PKA = PKA (Homo sapiens, UniProt P17612); test: PKA inhibition assay (standard coupled enzyme assay); conditions: 50 μM ATP, 80 μM Kemptide, 18 nM PKA, 30° C.
# Procedure: Compounds were screened for their ability to inhibit PKA using a standard coupled enzyme assay (Fox et al., Protein Sci., (1998) 7, 2249). Assays were carried out in a mixture of 100 mM HEPES 7.5, 10 mM MgCl2, 25 mM NaCl, 1 mM DTT and 3% DMSO. Final substrate concentrations in the assay were 50 μM ATP (Sigma Chemicals) and 80 μM peptide (Kemptide, American Peptide, Sunnyvale, Calif.). Assays were carried out at 30° C. and 18 nM PKA. Final concentrations of the components of the coupled enzyme system were 2.5 mM phosphoenolpyruvate, 300 μM NADH, 30 μg/ml pyruvate kinase and 10 μg/ml lactate dehydrogenase.
# An assay stock buffer solution was prepared containing all of the reagents listed above, with the exception of ATP, and the test compound of interest. 55 μl of the stock solution was placed in a 96 well plate followed by addition of 2 μl of DMSO stock containing serial dilutions of the test compound (typically starting from a final concentration of 5 μM). The plate was preincubated for 10 minutes at 30° C. and the reaction initiated by addition of 5 μl of ATP (final concentration 50 μM). Initial reaction rates were determined with a Molecular Devices SpectraMax Plus plate reader over a 15 minute time course. IC50 and Ki data were calculated from non-linear regression analysis using the Prism software package (GraphPad Prism version 3.0a for Macintosh, GraphPad Software, San Diego Calif., USA).
# Sequence of AKT-3 (Q9Y243 whole entry): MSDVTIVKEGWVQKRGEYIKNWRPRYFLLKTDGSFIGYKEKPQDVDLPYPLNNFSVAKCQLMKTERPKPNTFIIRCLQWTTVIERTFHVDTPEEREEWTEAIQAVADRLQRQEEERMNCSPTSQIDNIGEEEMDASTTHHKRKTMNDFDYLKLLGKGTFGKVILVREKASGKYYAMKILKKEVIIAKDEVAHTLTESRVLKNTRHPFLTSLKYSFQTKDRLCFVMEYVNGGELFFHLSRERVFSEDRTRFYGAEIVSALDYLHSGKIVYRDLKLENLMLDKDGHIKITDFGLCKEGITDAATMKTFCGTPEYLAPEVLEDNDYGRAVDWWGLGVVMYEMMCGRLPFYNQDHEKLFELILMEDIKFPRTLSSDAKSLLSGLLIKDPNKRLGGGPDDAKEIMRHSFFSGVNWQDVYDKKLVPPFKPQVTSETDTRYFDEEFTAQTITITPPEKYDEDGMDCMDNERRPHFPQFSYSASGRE
SMILES,Ki (AKT-3) [nM],Ki (PDK-1),Ki (PKA) [nM]
Cc1cccc(Nc2n[nH]c3ccc(NC(=O)C(CCN)c4ccccc4)cc23)c1 (centres unmarked) [Compound I-1038],1000 to 10000,1000 to 3000 nM,–
NC(C(=O)Nc1ccc2[nH]ncc2c1)c1cccc(Cl)c1 (centres unmarked) [Compound I-51],1000 to 10000,–,< 1000
NCC(C(=O)Nc1ccc2[nH]ncc2c1)c1cccc(Cl)c1F (centres unmarked) [Compound I-257],< 1000,> 3000 nM,–
NC(C(=O)Nc1ccc2[nH]ncc2c1)c1ccc(F)c(Cl)c1 (centres unmarked) [Compound I-55],1000 to 10000,–,< 1000
Cc1n[nH]c2ccc(NC(=O)C(CCN)c3cccc(CC(C)C)c3)cc12 (centres unmarked) [Compound I-142],1000 to 10000,> 3000 nM,–
NCCNC(C(=O)Nc1ccc2[nH]ncc2c1)c1ccc(Cl)c(Cl)c1 (centres unmarked) [Compound I-69],–,–,< 1000
COc1cccc(C(CCN)C(=O)Nc2ccc3[nH]nc(C)c3c2)c1 (centres unmarked) [Compound I-1018],1000 to 10000,1000 to 3000 nM,–
NCCC(SCc1ccccc1)C(=O)Nc1ccc2[nH]ncc2c1 (centres unmarked) [Compound I-154],1000 to 10000,> 3000 nM,–
NCCC(C(=O)Nc1cc(-c2ccccc2)c2[nH]ncc2c1)c1ccc(Cl)c(Cl)c1 (centres unmarked) [Compound I-150],1000 to 10000,> 3000 nM,–
COc1ccccc1C(CCN)C(=O)Nc1ccc2[nH]ncc2c1 (centres unmarked) [Compound I-1005],< 1000,1000 to 3000 nM,–
NCCC(C(=O)Nc1ccc2[nH]nc(NC(=O)c3ccc4ccccc4c3)c2c1)c1ccc(Cl)c(Cl)c1 (centres unmarked) [Compound I-170],< 1000,1000 to 3000 nM,–
NCCC(C(=O)Nc1ccc2[nH]nc(NC(=O)Nc3cccc(Cl)c3)c2c1)c1ccc(Cl)c(Cl)c1 (centres unmarked) [Compound I-173],< 1000,< 1000 nM,–
O=C(CCC(C(=O)O)c1ccccc1)Nc1ccc2[nH]ncc2c1 (centres unmarked) [Compound I-1014],< 1000,> 3000 nM,–
NCCC(C(=O)Nc1ccc2[nH]nc(NC(=O)COc3ccccc3)c2c1)c1ccccc1 (centres unmarked) [Compound I-1051],1000 to 10000,> 3000 nM,–
NCCC(C(=O)Nc1ccc2[nH]nc(NC(=O)Nc3ccccc3)c2c1)c1ccc(Cl)c(Cl)c1 (centres unmarked) [Compound I-176],1000 to 10000,1000 to 3000 nM,–
NCC[C@H](C(=O)Nc1ccc2[nH]nc(NC(=O)c3cccs3)c2c1)c1c(F)ccc(Cl)c1F [Compound I-1046],< 1000,< 1000 nM,–
NCC(C(=O)Nc1ccc2[nH]ncc2c1)c1ccc(Cl)cc1F (centres unmarked) [Compound I-258],< 1000,> 3000 nM,–
NCC[C@@H](C(=O)Nc1ccc2[nH]nc(-c3ccccc3)c2c1)c1ccccc1 [Compound I-1052],1000 to 10000,< 1000 nM,–
NCC[C@H](C(=O)Nc1ccc2[nH]nc(-c3ccccc3)c2c1)c1c(F)ccc(Cl)c1F [Compound I-1057],10000 to 20000,< 1000 nM,–
NCCC(C(=O)Nc1ccc2[nH]nc(-c3cccc(Cl)c3)c2c1)c1ccc(Cl)c(Cl)c1 (centres unmarked) [Compound I-253],< 1000,< 1000 nM,–
Cc1cccc(-c2n[nH]c3ccc(NC(=O)C(CCN)c4ccc(Cl)c(Cl)c4)cc23)c1 (centres unmarked) [Compound I-251],< 1000,< 1000 nM,–
O=C(Nc1ccc2[nH]ncc2c1)C(CO)c1ccccc1 (centres unmarked) [Compound I-84],–,–,1000 to 5000
O=C(CCCc1ccccc1)Nc1ccc2[nH]ncc2c1 [Compound I-92],–,–,1000 to 5000
O=C(Cc1cccc(Cl)c1F)Nc1ccc2[nH]ncc2c1 [Compound I-93],–,–,< 1000
N#Cc1cccc(Nc2n[nH]c3ccc(NC(=O)[C@@H](CCN)c4c(F)ccc(Cl)c4F)cc23)c1 [Compound I-1048],1000 to 10000,< 1000 nM,–
"O=C(Cc1cccc(Cl)c1)Nc1ccc2[nH]ncc2c1 [Compound I-6, 2-(3-Chloro-phenyl)-N-(1H-indazol-5-yl)-acetamide]",–,–,1000 to 5000
CC(=O)Nc1cccc(C(CCN)C(=O)Nc2ccc3[nH]ncc3c2)c1 (centres unmarked) [Compound I-111],1000 to 10000,> 3000 nM,–
NCC[C@@H](C(=O)Nc1ccc2[nH]nc(NC(=O)c3cccs3)c2c1)c1c(F)ccc(Cl)c1F [Compound I-1045],< 1000,< 1000 nM,–

# Other lines, results leading:
Ki (AKT-3) [nM],Ki (PDK-1),Ki (PKA) [nM],SMILES
< 1000,> 3000 nM,–,CC(C)c1cccc(-c2n[nH]c3ccc(NC(=O)C(CCN)c4ccc(Cl)c(Cl)c4)cc23)c1 (centres unmarked) [Compound I-222]
1000 to 10000,< 1000 nM,–,NCCC(C(=O)Nc1ccc2[nH]nc(-c3cccc(Cl)c3)c2c1)c1ccccc1 (centres unmarked) [Compound I-241]
1000 to 10000,> 3000 nM,–,NCCC(C(=O)Nc1ccc2[nH]nc(NC(=O)C3CCCCC3)c2c1)c1ccccc1 (centres unmarked) [Compound I-1050]
1000 to 10000,> 3000 nM,–,NCCC(C(=O)Nc1ccc2[nH]nc(NS(=O)(=O)c3cccc(Cl)c3)c2c1)c1ccc(Cl)c(Cl)c1 (centres unmarked) [Compound I-191]
10000 to 20000,> 3000 nM,–,NCCC(C(=O)Nc1ccc2[nH]nc(NS(=O)(=O)c3ccccc3)c2c1)c1ccc(Cl)c(Cl)c1 (centres unmarked) [Compound I-190]
< 1000,1000 to 3000 nM,–,NCCC(C(=O)Nc1ccc2[nH]nc(Nc3cccc(F)c3)c2c1)c1ccc(Cl)c(Cl)c1 (centres unmarked) [Compound I-213]
< 1000,1000 to 3000 nM and > 3000 nM,–,N#Cc1cccc(Nc2n[nH]c3ccc(NC(=O)[C@H](CCN)c4ccccc4)cc23)c1 [Compound I-1054]
1000 to 10000,< 1000 nM,–,NCC[C@@H](C(=O)Nc1ccc2[nH]nc(-c3ccccc3)c2c1)c1c(F)ccc(Cl)c1F [Compound I-1056]
1000 to 10000,< 1000 nM,–,CC(=O)c1ccc(-c2n[nH]c3ccc(NC(=O)C(CCN)c4ccccc4)cc23)cc1 (centres unmarked) [Compound I-250]
–,–,< 1000,NCCC(C(=O)Nc1ccc2[nH]nc(-c3cccc(C(=O)O)c3)c2c1)c1ccccc1 (centres unmarked) [Compound I-246]
1000 to 10000,1000 to 3000 nM,–,Cc1cccn(C(CCN)C(=O)Nc2ccc3[nH]nc(C)c3c2)c1=O (centres unmarked) [Compound I-137]
–,–,1000 to 5000,O=C(Cc1c[nH]c2ccccc12)Nc1ccc2[nH]ncc2c1 [Compound I-24]
1000 to 10000,1000 to 3000 nM,–,N#Cc1cccc(Nc2n[nH]c3ccc(NC(=O)[C@@H](CCN)c4ccccc4)cc23)c1 [Compound I-1055]
1000 to 10000,> 3000 nM,–,NCCC(C(=O)Nc1ccc2[nH]ncc2c1)c1cccc(OCc2ccccc2)c1 (centres unmarked) [Compound I-114]
< 1000,1000 to 3000 nM,–,Cc1cccc(C(CCN)C(=O)Nc2ccc3[nH]ncc3c2)c1 (centres unmarked) [Compound I-112]
10000 to 20000,1000 to 3000 nM,–,NCCC(C(=O)Nc1ccc2[nH]nc(C(=O)Nc3ccccc3)c2c1)c1ccccc1 (centres unmarked) [Compound I-1040]
–,–,< 1000,O=C(Nc1ccc2[nH]ncc2c1)C(CO)c1ccc(F)c(Cl)c1 (centres unmarked) [Compound I-85]
1000 to 10000,< 1000 nM,–,N#Cc1ccc(-c2n[nH]c3ccc(NC(=O)C(CCN)c4ccccc4)cc23)cc1 (centres unmarked) [Compound I-259]
–,–,< 1000,COC(=O)c1cccc(-c2n[nH]c3ccc(NC(=O)C(CCN)c4ccccc4)cc23)c1 (centres unmarked) [Compound I-244]
< 1000,> 3000 nM,–,N#Cc1cccc(Nc2n[nH]c3ccc(NC(=O)[C@H](CCN)c4c(F)ccc(Cl)c4F)cc23)c1 [Compound I-1047]
1000 to 10000,> 3000 nM,–,O=C(Cc1ccc(Cl)c(Cl)c1)Nc1ccc2[nH]ncc2c1 [Compound I-16]
